In patent US12551173B2, “System and method for single-scan rest-stress cardiac PET” (The General Hospital Corporation, priority 2012, dated 2026):
Several values for one entry are separate records, joined by “and”; a condition that tells them apart may be missing. Equal entries are not always repeated.

Tests used:
[1] = test system: myocardial blood flow; conditions: intravenous infusion, from start of infusion; cited from earlier work
[2] = test system: myocardium; assay: 100-min dynamic 18F-Flurpiridaz PET in cynomolgus monkey, 2-compartment model fit; format: in vivo
Text: Due to the relatively short measurements obtained in human studies, longer duration ^18F-Flurpiridaz measurements were made in a healthy 4.1-kg cynomolgus monkey. The animal was imaged under resting state and general anesthesia with 1%-2% isoflurane mixed with 100% oxygen. A 100-min dynamic ^18F-Flurpiridaz PET study, with 1.25 mCi injected dose, was acquired with a microPET P4 system from Concorde Microsystems, Inc. Images were reconstructed with filtered back-projection (FBP) into 24×5-s, 6×30-s, 5×60-s, and 18×300-s frames. The LV and RV input functions were extracted with GFADS. A region of interest was drawn over the myocardium and used to calculate the time-activity curve, which was then fitted to the standard four parameter, two-compartment model, with corrections for blood-to-tissue spillover in Eq. (3). Compartment model kinetic analysis tool (COMKAT) (Muzic Jr., R. F., et al., J. Nucl. Med. 42, 636-645, 2001; Fang, Y. H., et al., J. Nucl. Med. 51, 77-84, 2010) under MATLAB R2009a (Mathworks, Natick MA) was used to perform the nonlinear least squares for parameter estimation with the frame duration used as the statistical weight. After the kinetic parameters were estimated from the 100-min time-activity curve, the data were refit while progressively reducing the observation period. First, K1, k2, f1, and fRV were estimated as a function of study duration of the time-activity curves, ranging from 1 to 10 min. Due to the short measurement periods used, k3 and k4 were fixed to the values estimated by the 100-min data. The parameter variance of each parameter was approximated by the covariance matrix from the nonlinear least squares fitting. Then, the duration of the time-activity curve was fixed to 10 min and estimation of K1, k2, f1, and fRV was repeated with k3 fixed at values ranging from 0 to 0.1, incremented by 0.005. k4 was fixed as the value derived from fitting the 100-min data. Again, variance of each estimated parameter was approximated by the covariance matrix.
Still another aspect of the present system and methods includes ^18F-Flurpiridaz myocardial blood flow estimation using dynamic PET in non-human primates. To evaluate the parameter precision when estimating the MBF, a long dynamic study was conducted on a 4.1-kg cynomolgus monkey and the MBF precision was examined with different durations of data being used for kinetic modeling. A dynamic ^18F-Flurpiridaz imaging study was performed on a microPET P4. The animal was imaged under the resting state for 100 minutes with an injected dose of 1.25 mCi. […] The LV (FIGS. 11A-11B) and RV input function were extracted with GFADS. Time-activity curve from a region of interest drawn over the myocardium was fitted to the 2-compartment model. The estimated parameters are: K1=0.51 (SD=1.5%), k2=0.075 (SD=4.7%), k3=0.026 (SD=10.2%) and k4=0.016 (SD=10.4%). […] To evaluate the precision of K1 and k2, different study durations were used, ranging from one minute to 10 minutes to estimate K1 and k2 (with k3 and k4 fixed) as plotted for K1 in FIG. 14B.

[3] = test system: myocardium; assay: Kinetic analysis of clinical 18F-Flurpiridaz rest and stress PET, two-compartment tissue model, three subjects; format: in vivo, human; set-up: unit not given here
Protocol: To evaluate and compare the methods proposed in this work, simulation studies were performed based on the kinetic parameters derived from human studies conducted with ^18F-Flurpiridaz, formerly known as ^18F-BMS747158-02 (Lantheus Medical Imaging, North Billerica, MA). As a pyridazinone analog, ^18F-Flurpiridaz binds to the mitochondrial complex I with high affinity. The combination of high first pass extraction and complex I binding ensure a high uptake in the myocardium with long residence time, due to the high mitochondrial density in the myocardial wall. Data from a rat model have shown that ^18F-Flurpiridaz has an extraction fraction of greater than 90% over the physiological MBF range, which makes it an attractive perfusion tracer. Validation of MBF measured with ^18F-Flurpiridaz has been performed by Nekolla et al. in pigs by comparison to microsphere and ^13N-ammonia flow measurements.
As an example case, kinetic analysis was carried out based on ^18F-Flurpiridaz clinical data. ^18F-Flurpiridaz data was used to determine the local myocardial kinetics used in the simulations. […] In these studies, rest and stress imaging sessions were separated by at least 2 h. First, the rest and stress studies for each of the subjects were analyzed separately. […] For each subject, the acquired stress images were first aligned to the images of the rest study using the nonrigid image registration tool from SPM8 9 Ashburner, J., et al., Hum. Brain Mapp 7, 254-266, 1999). The LV and RV input functions for each subject and each study were extracted with generalized factor analysis on dynamic series (GFADS) (El Fakhri, G., et al., J. Nucl. Med. 46, 1264-1271, 2005; El Fakhri, G., et al., Med. Phys. 33, 1016-1024, 2006). The LV input function was used to approximate the plasma input function. No metabolite correction was performed. Because there is a 2-h gap between the rest and stress studies, the residual myocardial activity from the first tracer is mostly tracer bound to MC 1 and is nearly unaffected by the stressor. The rest and stress image volumes of the heart were segmented into 17 standard segments. Time-activity curves were calculated for each segment. The residual activity from the rest study was estimated and subtracted from the stress time-activity curve. Then, the kinetic parameters were estimated for each segment under the resting state with its 25-min time-activity curve. k3 was fixed as 0.026 (1/min) during the curve fitting. For the time-activity curve of the stress study, only data within the first 7.5 min were used in the curve fitting. After the parameters were estimated for all 17 segments, the cardiac flow reserve (CFR=K1,s/K1,r) of each segment was calculated. For the left anterior descending (LAD) territory, the segments with the two lowest CRF values were selected and the mean of each kinetic parameter was calculated from the estimated parameters of those two segments. The same calculation was repeated for right coronary artery (RCA) and left circumflex (LCX) as well. After two segments were picked for each territory, the kinetic parameters of the other 11 segments were averaged to compute the average kinetic parameters of the normal myocardium. The computation of the kinetic parameters of the normal myocardium, LAD, LCX, and RCA territories was performed separately for each subject. Table 1 summarizes kinetic parameters K1 and k2 estimated from the clinical ^18F-Flurpiridaz studies and used for Monte Carlo simulations.

[4] = test system: myocardium; assay: Tracer properties in the two-tissue compartment model (extraction, binding ratio); format: in vivo
Text: In another aspect, a flow measurement strategy incorporates knowledge of the basic properties of partially trapped tracers with a two-tissue compartment model, allowing simplifications appropriate to quantitative flow measurements. In this model the tracer can be in one of two states, either free, as the injected molecule, or bound to a receptor. In the example case of ^18F-Flurpiridaz, previous studies have shown that it binds to the mitochondrial complex I. The product of plasma concentration (Cr) and transport rate K1 is the force driving tracer from capillary plasma to the free space. Symbolically, K1 is the plasmato-tissue transport rate, FE, the product of flow F and the unidirectional capillary extraction fraction, E. k2 is a rate constant summarizing the egress from tissue to plasma. The rate constants k3 and k4 provide a summary description of binding and release of tracer. The full operational equation for the two compartment model is well known. In one aspect a focus is directed to the first few minutes after IV injection. […] Second, the ratio k3/(k2+k3), is between 0.2-0.6, meaning that after the first few minutes of scanning, about half the tracer entering the tissue space is bound and the effect of binding must be considered when interpreting the data. Third, it has been shown that at least an hour of scanning is required to obtain good estimates of all parameters. […]

[5] = test system: mitochondrial complex I; conditions: cited from earlier work
[6] = test system: myocardium; conditions: cited from earlier work
[7] = test system: myocardium; conditions: rat model, over the physiological MBF range; cited from earlier work
[8] = resting state, 100 minutes of data, 1.25 mCi
[9] = Subject 1, LAD territory, Stress
[10] = Subject 1, LCX territory, Stress
[11] = Subject 1, Normal myocardium, Rest
[12] = Subject 1, Normal myocardium, Stress
[13] = Subject 1, RCA territory, Stress
[14] = Subject 2, LAD territory, Stress
[15] = Subject 2, LCX territory, Stress
[16] = Subject 2, Normal myocardium, Rest
[17] = Subject 2, Normal myocardium, Stress
[18] = Subject 2, RCA territory, Stress
[19] = Subject 3, LAD territory, Stress
[20] = Subject 3, LCX territory, Stress
[21] = Subject 3, Normal myocardium, Rest
[22] = Subject 3, Normal myocardium, Stress
[23] = Subject 3, RCA territory, Stress

## OCCN(CCO)c1nc(N2CCCCC2)c2nc(N(CCO)CCO)nc(N3CCCCC3)c2n1 [dipyridamole]
[1]
  time to reach the peak hyperemia: 6.5 min

## CC(C)(C)n1ncc(OCc2ccc(COCCF)cc2)c(Cl)c1=O [18F-Flurpiridaz]
[2]; rest state, k3 fixed at values between 0 and 0.1 min^-1 (FIG. 2B)
  estimated K1 as a function of the nominal value of k3: 0.498 to 0.507
[2]; [8]
  K1: 0.51 (SD=1.5%)
  k2: 0.075 (SD=4.7%)
  k3: 0.026 (SD=10.2%)
  k4: 0.016 (SD=10.4%)
[3]; Subject 1, LAD territory, Rest
  K1: 0.56
  k2: 0.07
[3]; [9]
  K1: 1.04
  k2: 0.05
[3]; Subject 1, LCX territory, Rest
  K1: 0.58
  k2: 0.08
[3]; [10]
  K1: 0.99
  k2: 0.05
[3]; [11]
  K1: 0.68
  k2: 0.08
[3]; [12]
  K1: 1.96
  k2: 0.07
[3]; Subject 1, RCA territory, Rest
  K1: 0.74
  k2: 0.08
[3]; [13]
  K1: 1.26
  k2: 0.08
[3]; Subject 2, LAD territory, Rest
  K1: 0.78
  k2: 0.11
[3]; [14]
  K1: 1.60
  k2: 0.07
[3]; Subject 2, LCX territory, Rest
  K1: 0.94
  k2: 0.13
[3]; [15]
  K1: 2.10
  k2: 0.10
[3]; [16]
  K1: 0.738 and 0.74
  k2: 0.108 and 0.11
[3]; [17]
  K1: 2.292 and 2.29
  k2: 0.118 and 0.12
[3]; Subject 2, RCA territory, Rest
  K1: 0.68
  k2: 0.08
[3]; [18]
  K1: 1.43
  k2: 0.11
[3]; Subject 3, LAD territory, Rest
  K1: 0.64
  k2: 0.04
[3]; [19]
  K1: 1.58
  k2: 0.18
[3]; Subject 3, LCX territory, Rest
  K1: 0.69
  k2: 0.05
[3]; [20]
  K1: 1.61
  k2: 0.24
[3]; [21]
  K1: 0.60
  k2: 0.05
[3]; [22]
  K1: 2.09
  k2: 0.23
[3]; Subject 3, RCA territory, Rest
  K1: 0.58
  k2: 0.03
[3]; [23]
  K1: 0.68
  k2: 0.17
[4]
  ratio k3/(k2+k3): 0.2-0.6
[5]
  binding to mitochondrial complex I: high affinity
[6]; at all physiological flow rates
  unidirectional extraction fraction: greater than 90%
[6]; in the coronary circulation
  first-pass extraction: nearly complete
[7]
  extraction fraction: greater than 90%

## Nc1ncnc2c1ncn2[C@@H]1O[C@H](CO)[C@@H](O)[C@H]1O [adenosine]
[1]
  time to reach the peak hyperemia: 1.5 min
